US20100093613A1, “METHODS FOR IDENTIFYING AGENTS AND THEIR USE FOR THE PREVENTION OR STABILIZATION OF FIBROSIS” (priority 2007, published 2010)

What was measured:
[1] = test system: Umbilical Vein Endothelial Cells; assay: BioMAP 3C system (IL-1β + TNF-α + IFN-γ), scoring of readout parameters; assay type: cell-based, human; conditions: for HLA-DR score: desired change decrease; for uPAR score: desired change increase
Excerpt: (§1) Each screened compound is scored according to its modulation of the selected readout parameters. Compounds receive a positive score (score of 1) or negative score (score of 0) for each readout parameter set forth in Table 2 that is modulated in the desired direction. […] Parameters may be penalized by making the positive score a −1 for parameters where regulation is opposite to the desired direction.
(§2) Cell culture. Human umbilical vein endothelial cells (HUVEC) were pooled from multiple donors, cultured according to standard methods, and plated into microtiter plates at passage 4. Cell culture medium for all systems containing HUVEC included hydrocortisone. Coronary artery smooth muscle cells (CASM3C) and umbilical artery smooth muscle cells (HSM3C) were cultured according to standard procedures. Peripheral blood mononuclear cells (PBMC) were prepared from buffy coats from normal human donors according to standard methods. Monocyte-derived macrophages were differentiated in the presence of M-CSF for 7 d according to standard procedures. Human dermal fibroblasts were pooled from 3 donors, cultured according to standard methods, and plated confluent 24 h before stimulation. Cell culture medium for all systems containing fibroblasts and keratinocytes contained low hydrocortisone. Epidermal keratinocytes and bronchial epithelial cells from 3 donors were cultured according to standard procedures and pooled when plated into microtiter plates. For keratinocyte-fibroblast co-cultures, cells were plated simultaneously 24 h before stimulation. For bronchial epithelial cell-fibroblast co-cultures, fibroblasts were plated and cultured 48 before addition of epithelial cells, then cultured another 24 hr before stimulation. Concentrations/amounts of agents added to confluent microtiter plates to build each system: cytokines (IL-1β, 1 ng/ml; TNF-α, 5 ng/ml; IFN-γ, 20 ng/ml; IL-4, 5 ng/ml), activators (SAg, 20 ng/ml; histamine, 10 μM; zymosan, 10 μg/ml; or LPS, 2 ng/ml), growth factors (TGF-β, 5 ng/ml; EGF, bFGF, and PDGF-BB, 10 ng/ml), and PBMC (7.5×10^4 cells/well) or macrophages (3.5×10^4 cells/well).
(§3) Compounds. Compounds were prepared in the solvent directed, added 1 hr before stimulation of the cells, and were present during the 24 hr stimulation period for the measurement of parameters listed in Table 2. For proliferation, compounds added 1 hr before stimulation of the cells with cytokines, and were present during the 48 to 72 hr assay. If prepared in DMSO, the final concentration of solvent was 0.1% or less.
(§4) Readout Parameter Measurements. The levels of readout parameters were measured by ELISA. Briefly, microtiter plates are treated, blocked, and then incubated with primary antibodies or isotype control antibodies (0.01-0.5 microg/ml) for 1 hr. After washing, plates were incubated with a peroxidase-conjugated anti-mouse IgG secondary antibody or a biotin-conjugated anti-mouse IgG antibody for 1 hr followed by streptavidin-HRP for 30 min. Plates were washed and developed with TMB substrate and the absorbance (OD) was read at 450 nm (subtracting the background absorbance at 650 nm). Quantitation of TNF-alpha or PGE2 in the LPS system was done using a commercially available kit according to the manufacturer's directions. Proliferation of endothelial cells (HUVEC and CAEC), smooth muscle cells (SMC and CASMC), and PBMC (T cells) was quantitated by Alamar Blue reduction or SRB.
(§5) Data analysis. Mean OD values for each parameter were calculated for compounds run in duplicate. The mean value (or single well OD value) for each parameter in a treated sample was then divided by the mean value from an appropriate control to generate a ratio. All ratios were then log10 transformed. 95% significance prediction envelopes (grey shading in Figures) were calculated for historical controls.

[2] = test system: Peripheral Blood Mononuclear Cells + Umbilical Vein Endothelial Cells; assay: BioMAP LPS system (TLR4), scoring of readout parameters; assay type: cell-based, human; conditions: LPS (by position); desired change decrease
Excerpt: as §1, §2, §3, §4, §5

human primary cells = assay: Total score for desired parameter modulation over the BioMAP systems of Table 1; assay type: cell-based; conditions: penalties not applied
Excerpt: as §1
The relative importance of each parameter may be weighted by the screener to select those parameters of greatest interest for a particular application.
(§6) Compounds were first selected to inhibit PAI-1 in the HDFT as an indication of TBF-b signaling inhibition without being cytotoxic. […] Blank spots in Table 3 were where parameter was not assayed. Penalties were not applied for this scoring.
BioMAP Systems are designed to model complex human disease biology in a practical in vitro format. This is achieved by stimulating human primary cells (single cell type or defined mixtures of cell types) such that multiple disease-relevant signaling pathways are simultaneously active. The choice of cell types and stimulations is guided by the knowledge of disease biology and mechanisms. Incorporating appropriate cell types and stimulating signaling pathways relevant to disease states allows association of biological activities detected in BioMAP Systems with disease processes. Drug effects are then recorded by measuring biologically meaningful protein readouts that provide coverage of biological space of interest (e.g., inflammation, tissue remodeling) and allow discrimination between different drug classes tested.
as §2, §3
Readout Parameter Measurements. The levels of readout parameters were measured by ELISA.

[3] = test system: Bronchial epithelial cells; assay: BioMAP BE4T system (IL-4 + TNF-a), scoring of readout parameters; assay type: cell-based, human; set-up: key: 1 = modulated in desired direction, 0 = not (−1 = opposite); conditions: for PAI-1 score: desired change decrease; for EGFR score: desired no change or increase
Method: In the “BE4T” system, bronchial epithelial cells, usually primary human bronchial epithelial cells, are cultured in the presence of TNF-α and IL-4.
as §1, §2, §3, §4, §5

Fibroblasts [4] = assay: BioMAP HDFT system (TGF-β), scoring of readout parameters; assay type: cell-based, human; set-up: key to PAI-1 score: 1 = modulated in desired direction, 0 = not (no penalties applied); conditions: HDFT; desired change decrease
Excerpt: as §1, §6, §2, §3, §4
Data analysis. Mean OD values for each parameter were calculated for compounds run in duplicate. The mean value (or single well OD value) for each parameter in a treated sample was then divided by the mean value from an appropriate control to generate a ratio.

Fibroblasts [5] = assay: BioMAP HDF3CGF system (IL-1β + TNF-α + IFN-γ + EGF + bFGF + PDGFbb), scoring of readout parameters; assay type: cell-based, human; conditions: for PAI-1 score: desired change decrease; for MMP-1 score: desired change increase; for EGFR score: desired no change or increase
Method: In the “HDF-3CGF” system, dermal fibroblast cells, usually primary human dermal fibroblast cells are cultured alone or in the presence of lung epithelial cells, usually primary human lung epithelial cells, with two or more factors selected from: TNF, IL-1, IFNγ, EGF, bFGF+HSPG (heparan sulfate proteoglycan), and PDGFbb. In some embodiments three or more factors are present, four or more, five or more, or all six factors are present.
Human neonatal dermal fibroblasts (HDFn) or adult lung fibroblasts (HDFp) or fibroblasts from tissues such as liver, heart, or kidney are used. Cells are cultured at 3×10^4 cells/ml in DMEM/F12 (50/50) from Cellgro, supplemented with LSGS kit (from Cascade Biologics); fetal bovine serum, 2% v/v, hydrocortisone 100 nM, human epidermal growth factor 10 ng/ml, basic fibroblast growth factor 3 ng/ml and heparin 10 μg/ml, and penicillin/streptomycin amphotericin B solution (PSA), until confluency. Medium is replaced with DMEM/F12 with only penicillin/streptomycin amphotericin B solution (PSA), then 24 hours later, the following are applied:
After another 24, 48 or 72 hours incubation (37° C., 5% CO2) the cultures are evaluated for the following parameters: ICAM, VCAM, CD40, CD90, IP-10, MCP-1, Collagen I, Mig, m-CSF, TIMP-2, PAI-I, IL-8, Collagen III, HLA-DR, MMP-1, MMP-9, proliferation, TGF-b1, eotaxin-3, decorin, alpha-SMC, MLCK, I-TAC, EGFR, TIMP-1.
Cell culture. […] Human dermal fibroblasts were pooled from 3 donors, cultured according to standard methods, and plated confluent 24 h before stimulation. Cell culture medium for all systems containing fibroblasts and keratinocytes contained low hydrocortisone. […] Concentrations/amounts of agents added to confluent microtiter plates to build each system: cytokines (IL-1β, 1 ng/ml; TNF-α, 5 ng/ml; IFN-γ, 20 ng/ml; IL-4, 5 ng/ml), activators (SAg, 20 ng/ml; histamine, 10 μM; zymosan, 10 μg/ml; or LPS, 2 ng/ml), growth factors (TGF-β, 5 ng/ml; EGF, bFGF, and PDGF-BB, 10 ng/ml), and PBMC (7.5×10^4 cells/well) or macrophages (3.5×10^4 cells/well).

[6] = test system: Bronchial epithelial cells; assay: BioMAP BE3C system (IL-1β + TNF-α + IFN-γ), scoring of readout parameters; assay type: cell-based, human; conditions: for PAI-1 score: desired change decrease
Excerpt: as §1, §2, §3, §4, §5

Fibroblasts [7] = assay: BioMAP HDF3CT system (IL-1β + TNF-α + IFN-γ + TGF-β), scoring of readout parameters; assay type: cell-based, human
Excerpt: as §1, §2, §3, §4, §5

[8] = PMID 17023731, PMID 8421998; cited from earlier work

Structure (SMILES)	HLA-DR score [1]	uPAR score [1]	TF score [2]	Score (Fraction correctly modulated parameters out of 45-58 total) (human primary cells)	uPA score [3]	PAI-1 score [3]	EGFR score [3]	PAI-1 score (Fibroblasts [4])	PAI-1 score (Fibroblasts [5])	MMP-1 score (Fibroblasts [5])	EGFR score (Fibroblasts [5])	HLA-DR score [6]	MMP-1 score [6]	PAI-1 score [6]	MMP-1 score (Fibroblasts [7])	anti-fibrotic activity [8]
Cc1cc(C2CCCCC2)n(O)c(=O)c1.NCCO [Ciclopirox Ethanolamine]	0	0	0	0.31	0	0	1	1	1	0	0	0	0	0	0	–
Cc1[nH]ccc2c1[nH]c1cc(=O)ccc12 [Harmol]	0	0	1	0.29	0	0	0	1	1	0	0	0	0	1	0	–
COc1cc(/C=C/C(=O)N2CCC=CC2=O)cc(OC)c1OC [Piperlongumine]	0	0	1	0.47	0	0	0	1	1	0	0	0	0	0	0	–
C=C(NC(=O)C(=C)NC(=O)c1csc(C2=N[C@@H]3c4csc(n4)[C@H]4NC(=O)c5csc(n5)[C@H]([C@](C)(O)[C@@H](C)O)NC(=O)[C@H]5CSC(=N5)/C(=C/C)NC(=O)[C@H]([C@@H](C)O)NC(=O)c5csc(n5)[C@]3(CC2)NC(=O)[C@H](C)NC(=O)C(=C)NC(=O)[C@H](C)NC(=O)[C@H]([C@@H](C)CC)N[C@@H]2C=Cc3c([C@H](C)O)cc(nc3[C@H]2O)C(=O)O[C@@H]4C)n1)C(N)=O [Thiostrepton]	0	0	1	0.42	0	0	1	1	1	0	0	0	0	0	0	–
CC(=O)S[C@@H]1CC2=CC(=O)CC[C@]2(C)[C@H]2CC[C@@]3(C)[C@@H](CC[C@@]34CCC(=O)O4)[C@H]12 [spironolactone]	–	–	–	high scores	–	–	–	–	–	–	–	–	–	–	–	known anti-fibrotic activity
